Key:
Sewage sludge = experiment: Anaerobic decomposition of octamethylcyclosiloxane (D4) by sewage sludge with nitrate as electron acceptor, gas chromatography; settings: in 11 days
Experimental: The experiment was carried out in accordance with Example 1. In each case five flasks were made up with sewage sludge and five flasks with inactivated sewage sludge. As carbon source, octamethylcyclosiloxane (D4) was added to the medium. The siloxane is immiscible with water and first forms an oily film on the culture surface. With advancing culture time, the siloxane oil is emulsified in the culture. Relatively large cell aggregates form. Culture proceeds in accordance with Example 1 in the mineral medium specified there (SM1) comprising 5 g/l of KNO3 as electron acceptor. As sole carbon source, octamethylcyclosiloxane (D4) was added to the batches (1 ml per 100 ml of medium). After differing incubation times, the D4 content of the batches was determined. The entire batch was extracted 3 times with 50 ml of pentane, and to facilitate phase separation, it was centrifuged each time. The pentane phases were combined and D4 determined quantitatively directly by means of gas chromatography (Hewlett Packard instrument hp5890_li). The gas-chromatographic determination proceeded using a 30 m capillary (Hewlett Packard HP-1 No. 59026323) using nitrogen as carrier gas. Temperature program: 50° C. (5 min)−270° C. at 20° C./min. Detection was by means of FID at 300° C. The resultant signal peaks were quantified using corresponding standard solutions.

[1] = tested on: Sewage sludge from a municipal sewage treatment plant; experiment: Anaerobic decomposition of dimethylsilanediol (DMSD) by sewage sludge with nitrate as electron acceptor, 1H-NMR; settings: in 11 days
Source text: Sewage sludge from a municipal sewage treatment plant was taken off from running operations under oxygen-free conditions (N2-comprising sample vessels). To separate off interfering substrates, the cell mass was resuspended in 5-times the volume of an oxygen-free buffer (50 mmol/l of potassium phosphate pH 6.8) and centrifuged off. Oxygen-free solutions were produced by degassing the solution and purging with gaseous nitrogen.
The operation (resuspending/centrifuging) was repeated 3 times.
The washed oxygen-free cell mass was transferred in the absence of oxygen into shake flasks comprising culture medium (10 g of moist cell mass per 100 ml of medium). For control batches, the sewage sludge was autoclaved and inactivated thereby. […]
As electron acceptor, in addition, 5 g/l of KNO3 were added. […] Samples of the culture medium were taken off at regular intervals and analyzed immediately. […]
Analysis: In experiments using DMSD as a substrate, the change in concentration of DMSD in the aqueous phase was determined by means of proton magnetic resonance spectroscopy (^1H-NMR). […] Samples (0.9 ml) from the culture batches were taken off for this directly (via the stopper) from the vessel, admixed with standard (TSP in D2O; TSP=3-(trimethylsilyl)propionic acid-D4 sodium salt) and analyzed in the spectrometer. The DMSD signal can be quantified exactly via the known standard signal).

[2] = anaerobically incubated batch comprising sewage sludge
[3] = control batch (inactivated sewage sludge)

Row | SMILES | decrease in the amount of D4 (Sewage sludge; [2]) | decrease in the amount of D4 (Sewage sludge; [3]) | decrease of the amount of DMSD [1, 2] | decrease of the amount of DMSD [1, 3]
1 | C[Si]1(C)O[Si](C)(C)O[Si](C)(C)O[Si](C)(C)O1 [D4, Octamethylcyclosiloxane] | −16.3% | −6.2% |  | 
2 | C[Si](C)(O)O [DMSD, Dimethylsilanediol] |  |  | −39% | −9%

Source: patent US20070178577A1, “Method for effecting the anaerobic biological decomposition of organsiloxanes” (WACKER CHEMIE AG, priority 2004, published 2007)
